Structures can show the parent of a compound that is named as a salt.
Key:
[1] = tested on: AVP-induced pressor response (V1A antagonism); test: Antagonism of AVP-induced pressor response, oral, rats; format: in vivo
[2] = tested on: AVP-induced pressor response (V1A antagonism); test: Antagonism of AVP-induced pressor response, IV, dogs; format: in vivo
[3] = tested on: urinary output (V2 antagonism); test: Urinary output and osmolality in conscious dogs; format: in vivo
[4] = tested on: dogs with heart failure induced by rapid right ventricular pacing; test: Heart failure induced by rapid right ventricular pacing; format: in vivo; conditions: IV 0.1 mg/kg
[5] = Oral pharmacokinetics in rat; format: in vivo
From the text: (§1) There is a marked food effect with absorption reduced by >50% in dogs after a meal.

[6] = Oral pharmacokinetics in dog; format: in vivo
From the text: as §1

[7] = tested on: dogs; test: 2- and 13-week oral toxicity studies in dogs; format: in vivo
[8] = tested on: rats; test: Reproductive performance / fertility studies in rats; format: in vivo
[9] = tested on: rats; test: Teratogenicity in rats; format: in vivo
[10] = tested on: rabbits; test: Teratogenicity in rabbits; format: in vivo
[11] = tested on: bacteria; test: Mutagenicity in bacteria; format: cell-based
[12] = tested on: human lymphocytes; test: Clastogenicity in human lymphocytes in vitro; format: cell-based
[13] = tested on: bone marrow of rats; test: Clastogenicity in bone marrow of rats; format: in vivo
[14] = tested on: rats; conditions: rat, in vivo, iv, 2.5 mg/kg
[15] = tested on: dogs; conditions: dog, in vivo, iv, 2 mg/kg
[16] = tested on: AVP-induced platelet aggregation (V1A antagonist activity); test: AVP-induced platelet aggregation in Phase 1 subjects; format: in vivo, human; conditions: 20 mg/day orally or 2.5 mg IV
[17] = tested on: AVP-induced dermal vasoconstriction; test: AVP-induced dermal vasoconstriction in Phase 1 subjects; format: in vivo, human; conditions: 50 mg IV
[18] = tested on: aquaretic action (V2-receptor antagonism); test: Aquaretic action in normal subjects; format: in vivo, human
[19] = tested on: subjects; test: Safety in Phase 1 subjects; format: in vivo, human
From the text: Other adverse events included flushes, a sensation of cold extremities, abdominal complaints, abnormal stools, syncope, dizziness, palpitations, and postural hypotension. Three subjects who received YM087 and one subject who received placebo developed minor, reversible leukopenia. […] These observations were considered related to antagonism of V2 receptors and not a safety concern. Vital signs (blood pressure and heart rate) were unaffected by YM087.

[20] = tested on: patients with NYHA Class III/IV heart failure; test: Double-blind placebo-controlled IV dose-response study of cardiopulmonary hemodynamics in NYHA Class III/IV heart failure patients on ACE inhibitor background; format: in vivo, human; conditions: CHF patients
Experimental: These patients have advanced CHF/LV dysfunction. Patients must be receiving background therapy of diuretics, ACE inhibitors, and optionally digoxin and/or β-blocker; patients will be stratified as to whether they are receiving concomitant β-blocker treatment. […] Patients should take their daily dose of concomitant heart failure medications within 2 hours of catheter insertion. No additional doses of background heart failure medications should be administered during the study treatment phase. After insertion of a balloon-floatation pulmonary artery catheter, serial measurements will be obtained over an 8- to 18-hour baseline and stabilization period. […] The mean baseline PCWP in this study group was 24.2 mmHg. The mean baseline CI was 2.1 L/min/m^2. […] Fluid intake will be restricted to 250 mL every 2 hours (except at time of IV infusion) from time of insertion of Swan-Ganz catheter and throughout the treatment period. […] Serum electrolytes, BUN, creatinine, and serum osmolality will be measured at baseline and 4 and 12 hours posttreatment. Clinical laboratory and vasopressin plasma levels will be measured at baseline and 12 hours postdrug administration. […] Patients meeting baseline eligibility criteria (CI≦2.6 L/min/m^2; PCWP≧16 mmHg) on successive readings at least 30 minutes apart during 2 hours prior to study drug administration will enter the treatment phase. […] Clinical laboratory and vasopressin plasma levels will be measured 12 hours postdose. […] Serum electrolytes, BUN, creatinine, serum osmolality will be measured at 4 and 12 hours posttreatment. […] For this study, hemodynamic efficacy parameters of PCWP, CI, SVR, and PVR will be evaluated in terms of their response profile. The response profile will be assessed in terms of peak change, and AUC delimited by the parameter change from baseline and measurement times. […] If measurements are missing at certain times, the AUC will be calculated using all other available observations. Dose response over the treatment groups will be assessed for selected measures. […]

[21] = tested on: rats; conditions: female rats, 13-week repeated oral dose
[22] = Pharmacokinetics in healthy subjects (Phase 1); conditions: human

With `Cc1nc2c([nH]1)-c1ccccc1N(C(=O)c1ccc(NC(=O)c3ccccc3-c3ccccc3)cc1)CC2` [YM087, N-[4-(2-methyl-,4,5,6-tetrahydrornidazo[4,5-d][1]benzazepin-6-ylcarbonyl)phenyl]biphenyl-2-carboxamide hydrochloride] the “dose that reduced the AVP response by 50% (ID50)” value [1] was 0.32 mg/kg, the “ID50, AVP-induced pressor response” value [2] was 0.026 mg/kg and the urinary output ([3]; conscious dogs, oral 0.03 to 0.3 mg/kg, dose-related) was “increased urinary output”. For the same molecule, the urinary osmolality ([3]; conscious dogs, oral 0.03 to 0.3 mg/kg, reduced from 1500) was < 100 mOsm/kg H2O, the “effect on urinary sodium (Na) or potassium (K) excretion” value ([3]; unlike furosemide) was “little or no effect” and the cardiac function [4] was “significantly improved the depressed cardiac function”. For the same molecule, the diuresis [4] was “produced a water diuresis”, the “time to peak concentrations” value [5] was 0.5 h and the “time to peak concentrations” value [6] was 1 h. For the same molecule, the peripheral blood counts ([7]; affected dogs, 13-week study) was “Decreased peripheral erythrocyte, leukocyte, and/or platelet counts”, the “reversibility of bone marrow and peripheral blood changes” value ([7]; dogs) was “reversible” and the bone marrow histopathology ([7]; dogs, 2- and 13-week oral studies) was “Histopathologic changes in bone marrow were observed”. For the same molecule, the female fertility ([8]; female rats, 100 mg/kg orally for 2 weeks prior to mating with untreated males) was “reduced fertility index, increased implantation loss, and decreased live fetuses”, the “reproductive performance of male rats” value ([8]; male rats) was “did not affect” and the teratogenicity [9] was “not teratogenic”. For the same molecule, the teratogenicity [10] was “not teratogenic”, the mutagenicity [11] was “not mutagenic” and the clastogenicity [12] was “not clastogenic”. For the same molecule, the clastogenicity [13] was “not clastogenic”, the toxicity [14] was “No toxicity was observed” and the toxicity [15] was “No toxicity was observed”. The AVP-induced platelet aggregation [16] was “Inhibition”, the AVP-induced dermal vasoconstriction [17] was “Total inhibition” and the “duration of increased urine production rate postdosing” value ([18]; IV 50 mg/day) was ≤ 6 h. The “duration of increased urine production rate postdosing” value ([18]; IV doses up to 250 μg/kg) was “up to 3 hours”, the “tolerability of aquaretic effects” value ([18]; normal subjects, 120 mg QD or 60 mg BID orally or 50 mg IV) was “too uncomfortable in normal subjects to be tolerable” and the “dose at which aquaretic action with decrease in urine osmolarity starts” value ([18]; normal subjects, IV) was 0.05 mg/kg. The “dose at which aquaretic action with decrease in urine osmolarity starts” value ([18]; normal subjects, oral) was 15 mg, the overall safety ([19]; approximately 250 subjects treated) was “no major safety concerns were identified” and the “urinary and plasma osmolarity” value ([19]; at higher doses, with or without an increase in plasma sodium) was “urinary osmolarity decreased and plasma osmolarity increased”. The “biochemical or hematological laboratory parameters” value ([19]; human, in vivo) was “No drug-related trend was observed”, the “vital signs (blood pressure and heart rate)” value ([19]; human, in vivo) was “unaffected” and the serious adverse event ([19]; one patient with severe CHF, 80 mg/day for 4 days, relation to study drug could not be excluded) was “generalized tonic clonic seizure”. The “number of subjects who developed minor, reversible leukopenia” value ([19]; one subject on placebo also) was “Three”, the “most frequent adverse events” value ([19]; regardless of treatment association) was “mild or moderate thirst and mild headache” and the “pulmonary capillary wedge pressure (PCWP)” value ([20]; IV 10, 20 or 40 mg, 85% receiving ACE inhibitor, FIG. 1) was “significant reductions”. The “right atrial pressure (RAP)” value ([20]; IV 10, 20 or 40 mg, 85% receiving ACE inhibitor, FIG. 2) was “significant reduction”, the “hemodynamic effect as add-on therapy to ACE inhibitors” value ([20]; add-on to normal treatment with ACE inhibitors) was “surprisingly favorable hemodynamic effect” and the uterine weights [21] was “decreased at all doses”. It also gave a half-life ([22]; plasma) of 4 to 5 h, a bioavailability ([22]; plasma, oral) of 43 to 59% and a Tmax ([22]; plasma, po) of ~1 h. The “plasma levels on repeated dosing” value ([22]; repeated BID oral doses, 60 mg) was “unexpectedly high plasma levels after the second dose”.

Source: patent US20050234043A1, “ACE inhibitor-vasopressin antagonist combinations” (priority 2000, published 2005)
